Values after ≈ are worked out from the molar mass of the structure shown. One block for each molecule: values may come before it.
What was measured:
[1] = system: Streptococcus faecalis Z 20; assay: MIC in vitro against thiamphenicol-resistant strain; format: cell-based; conditions: Enterococcus faecalis, Z20, Streptococcus faecalis Z 20, thiamphenicol-resistant
Excerpt: (§1) Furthermore, the compounds of the present invention show a certain bacterial activity, both "in vitro" and in the presence of rabbit serum, in respect of some microorganism strains resistant against thiamphenicol (ie., […]; see Merck Index Ninth Edition, page 9034) as it appears from the following results: […]

[2] = system: Staphylococcus albus 1238; assay: as above; format: cell-based; conditions: Staphylococcus albus 1238, thiamphenicol-resistant
Excerpt: as §1

[3] = system: Staphylococcus aureus 4180; assay: as above; format: cell-based; conditions: Staphylococcus aureus 4180, thiamphenicol-resistant
Excerpt: as §1

[4] = system: Streptococcus faecalis Z 61; assay: as above; format: cell-based; conditions: Enterococcus faecalis, Z61, Streptococcus faecalis Z 61, thiamphenicol-resistant
Excerpt: as §1

Streptococcus faecalis = assay: MIC in culture broth, in the presence of rabbit serum, against thiamphenicol-resistant strain; format: cell-based; conditions: Enterococcus faecalis
Excerpt: (§2) Furthermore, the compounds of the present invention show a certain bacterial activity, both "in vitro" and in the presence of rabbit serum, in respect of some microorganism strains resistant against thiamphenicol (ie., […]; see Merck Index Ninth Edition, page 9034) as it appears from the following results:
(§3) ** = tests carried out in culture broth, in the presence of rabbit serum.

[5] = system: Pseudomonas aeruginosa 50541; assay: as above; format: cell-based; conditions: Pseudomonas aeruginosa 50541, thiamphenicol-resistant
Excerpt: as §2, §3

Proteus morgani N 520 = assay: MIC, agar dilutions in a double series, in vitro (Table 2); format: cell-based; conditions: Proteus morgani N 520, agar dilution
Protocol: (§4) Insofar as the study of the antibacterial activity spectrum is concerned, this was performed by using the method of agar dilutions in a double series. The minimum inhibitory concentration (MIC) was performed against grampositive and gram-negative microorganisms as well as Proteus.

E. Coli K12 = assay: as above; format: cell-based; conditions: Escherichia coli, E. Coli K12, agar dilution
Protocol: as §4

[6] = system: Past. multocide NCTC 10722; assay: as above; format: cell-based; conditions: Past. multocide NCTC 10722, agar dilution
Protocol: as §4

S. aureus Oxford = assay: as above; format: cell-based; conditions: Staphylococcus aureus, agar dilution
Protocol: as §4

Salmonelli Typhi M-VI = assay: as above; format: cell-based
Protocol: as §4

[7] = system: Strep. faecalis ATCC 10541; assay: as above; format: cell-based; conditions: Enterococcus faecalis, ATCC10541, Strep. faecalis ATCC 10541, agar dilution
Protocol: as §4

Strep. agalactiae 4 b = assay: as above; format: cell-based; conditions: Streptococcus agalactiae, agar dilution
Protocol: as §4

[8] = system: multocide NCTC 10722 Pasteurella; assay: PD50 in experimental infection of the mouse by intraperitoneal inoculation (Table 3); format: in vivo; conditions: 120 h, treatment time 5 days, about 100 times the lethal amount at 50% i.p., Spearman-Karber
Excerpt: The study of the antibiotic activity of the derivatives of the present invention was completed by the determination of PD50 in experimental infections from multocide NCTC 10722 Pasteurella induced in the mouse by intraperitoneal inoculation of a bacterial amount equal to about 100 times the lethal amount at 50%. The determination of PD50 relating to the examined derivatives has been carried out according to the method of Spearman-Karber (L. Cavalli-Sforza "Analisi statistica per medici e biologi e analisi del dosaggio biologico"--Ed. Universitarie Boringhieri--Torino--1961, pages 173-175).

Shighelli Boydii 4 = assay: MIC, agar dilutions in a double series, in vitro (Table 2); format: cell-based; conditions: Shighelli Boydii 4, agar dilution
Protocol: as §4

[9] = Hydrolysis of the esters in the animal organism; format: in vivo; conditions: ester at the alcoholic function
[10] = system: grampositive and gram-negative microorganisms as well as Proteus; assay: Antibacterial activity of the esterified derivatives compared with Z 2100; conditions: after hydrolysis in the animal organism
Protocol: as §4

MIC [1]: 160 µg/mL (≈ 449 µM)
MIC [2]: 160 µg/mL (≈ 449 µM)
MIC [3]: 160 µg/mL (≈ 449 µM)
MIC [4]: 160 µg/mL (≈ 449 µM)
MIC (Streptococcus faecalis): 320 µg/mL
MIC [5]: 160 µg/mL
Structure (SMILES): CS(=O)(=O)c1ccc([C@@H](O)[C@@H](CO)NC(=O)C(Cl)Cl)cc1 [Thiamphenicol, reference compound]

Structure (SMILES): CS(=O)(=O)c1ccc([C@@H](O)[C@@H](CO)NC(=O)C(F)(F)F)cc1 [Z 2100, D-(+)-threo-1-(p-methanesulphonylphenyl)-2-trifluoroacetamido-1,3-propanediol]
MIC (Proteus morgani N 520): 8 µg/mL (≈ 23.4 µM)
MIC (E. Coli K12): 64 µg/mL (≈ 188 µM)
MIC [6]: 2 µg/mL (≈ 5.86 µM)
MIC (S. aureus Oxford): 16 µg/mL (≈ 46.9 µM)
MIC (Salmonelli Typhi M-VI): 32 µg/mL (≈ 93.8 µM)
MIC [7]: 8 µg/mL (≈ 23.4 µM)
MIC (Strep. agalactiae 4 b): 16 µg/mL (≈ 46.9 µM)
ED50 ([8]; NCTC10722, po, per os): 19 mg/kg
MIC [1]: 40 µg/mL (≈ 117 µM)
MIC [2]: 40 µg/mL (≈ 117 µM)
MIC [3]: 40 µg/mL (≈ 117 µM)
MIC [4]: 80 µg/mL (≈ 234 µM)
MIC (Streptococcus faecalis): 80 µg/mL
MIC [5]: 80 µg/mL

Structure (SMILES): CSc1ccc([C@@H](O)[C@@H](CO)NC(=O)C(F)(F)F)cc1 [Z 2109, D-(-)-threo-1-(p-methylmercaptophenyl)-2-trifluoroacetamido-1,3-propanediol]
MIC (Shighelli Boydii 4): 32 µg/mL (≈ 103 µM)
MIC (Proteus morgani N 520): 4 µg/mL (≈ 12.9 µM)
MIC (E. Coli K12): 16 µg/mL (≈ 51.7 µM)
MIC [6]: 4 µg/mL (≈ 12.9 µM)
MIC (S. aureus Oxford): 32 µg/mL (≈ 103 µM)
MIC (Salmonelli Typhi M-VI): 64 µg/mL (≈ 207 µM)
MIC [7]: 32 µg/mL (≈ 103 µM)
MIC (Strep. agalactiae 4 b): 64 µg/mL (≈ 207 µM)
ED50 ([8]; NCTC10722, po, per os): 16.6 mg/kg

Structure (SMILES): CCCCCCCCCCCCCCCC(=O)OC[C@@H](NC(=O)C(F)(F)F)[C@H](O)c1ccc(S(C)(=O)=O)cc1 [Z 2112, D-(+)-threo-1-(p-methanesulphonylphenyl)-2-trifluoroacetamido-3-palmitoyloxy-1-propanol]
ED50 ([8]; NCTC10722, po, per os): 21 mg/kg
hydrolysis in the animal organism [9]: quickly hydrolyzed in the animal organism
activity relative to Z 2100 [10]: show the same activity as Z 2100

Structure (SMILES): CS(=O)(=O)c1ccc([C@@H](O)[C@@H](COC(=O)CN)NC(=O)C(F)(F)F)cc1 [Z 2117, D-(+)-threo-1-(p-methanesulphonylphenyl)-2-trifluoroacetamido-3-aminoacetoxy-1-propanol]
ED50 ([8]; NCTC10722, sc, subcutaneous): 14.3 mg/kg
hydrolysis in the animal organism [9]: quickly hydrolyzed in the animal organism
activity relative to Z 2100 [10]: show the same activity as Z 2100

From patent US4188402A, “Derivatives of the D-threo-1-phenyl-2-trifluoroacetamido-1,3-propandediol” (Clesa S.p.A., priority 1977, dated 1980)
